pIC50: −log10 of the molar value.
Legend:
C57BL/6 males = assay: Splenocyte populations after in vivo treatment (FACS); design: species or system mouse; settings: 130 mg/kg for 10 days
Protocol: All Abs were purchased from Pharmingen, San Diego, Calif. Stained splenocytes were analyzed by FACS Calibur, as described above.

NOD females = assay: Spontaneous diabetes in NOD females (incidence, IPGTT, insulitis); format: in vivo, mouse
Protocol: Mice were monitored for diabetes development by testing blood glucose from 10 wk of age by One Touch Profile diabetes tracking system, as described above.
Intraperitoneal glucose tolerance test (IPGTI) was performed in the group of non-diabetic WHI-P131-treated and vehicle-treated control NOD females on the end of experimental period (25 wk of age of NOD mice). Mice were fasted for 10 hours, and the glucose solution (1.5 g/kg body weight) was injected i.p. Before and after injection of glucose, blood samples were taken and blood glucose levels were measured (as described above) at 0, 30, 60 and 120 min time points.
The group of control and WHI-P131-treated non-diabetic NOD females was sacrificed at the end of experimental period, at 25 wksof age, and characteristic histopathologic lesion of islets (insulitis) was evaluated in each mouse scoring at least 25 islets per mouse. Briefly, pancreas was removed, fixed in 10% formalin, parafin embedded, cut and stained with hematoxylin and eosin for light microscopic examinations.

human JAK3 = molecular target: T1, human JAK3 (Homo sapiens, UniProt P52333); assay: JAK3 immune complex kinase assay (JAK3 immunoprecipitated from KL2 EBV-transformed B cell line); format: biochemical; settings: JAK3 kinase assay, KL2 cell-derived human JAK3; read-out: IC50
T1 sequence (P52333 1-1124): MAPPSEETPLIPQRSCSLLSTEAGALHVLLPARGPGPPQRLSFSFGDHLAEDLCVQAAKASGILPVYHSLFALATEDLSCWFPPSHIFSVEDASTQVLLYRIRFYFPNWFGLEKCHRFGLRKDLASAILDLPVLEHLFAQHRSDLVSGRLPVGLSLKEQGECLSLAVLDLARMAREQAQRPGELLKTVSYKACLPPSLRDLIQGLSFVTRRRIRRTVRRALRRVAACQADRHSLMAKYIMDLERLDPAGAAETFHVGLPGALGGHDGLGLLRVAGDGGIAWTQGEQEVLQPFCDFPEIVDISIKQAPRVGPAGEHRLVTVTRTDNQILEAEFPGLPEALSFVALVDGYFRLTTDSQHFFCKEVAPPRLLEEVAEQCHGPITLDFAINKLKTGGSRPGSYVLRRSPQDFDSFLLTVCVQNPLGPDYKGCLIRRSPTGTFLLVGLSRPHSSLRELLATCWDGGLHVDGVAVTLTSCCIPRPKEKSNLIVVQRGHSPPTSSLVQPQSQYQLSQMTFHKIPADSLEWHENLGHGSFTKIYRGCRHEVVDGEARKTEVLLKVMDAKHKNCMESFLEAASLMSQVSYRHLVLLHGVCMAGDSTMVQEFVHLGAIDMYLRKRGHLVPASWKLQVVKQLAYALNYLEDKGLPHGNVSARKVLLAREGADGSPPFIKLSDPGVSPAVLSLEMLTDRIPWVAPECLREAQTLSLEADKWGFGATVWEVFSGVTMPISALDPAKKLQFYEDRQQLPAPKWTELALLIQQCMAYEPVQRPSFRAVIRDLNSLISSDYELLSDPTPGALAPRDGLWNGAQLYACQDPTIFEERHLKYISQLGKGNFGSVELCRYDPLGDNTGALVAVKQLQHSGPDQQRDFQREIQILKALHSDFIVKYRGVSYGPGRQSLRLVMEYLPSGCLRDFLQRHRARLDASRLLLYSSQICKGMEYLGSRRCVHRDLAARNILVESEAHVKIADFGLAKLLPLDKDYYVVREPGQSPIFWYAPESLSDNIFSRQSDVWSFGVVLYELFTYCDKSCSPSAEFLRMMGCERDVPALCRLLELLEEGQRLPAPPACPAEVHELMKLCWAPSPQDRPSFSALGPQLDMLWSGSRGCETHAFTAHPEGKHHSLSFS
Protocol: In JAK3 immune complex kinase assays (17, 22), KL-2 EBV-transformed human lymphoblastoid B cells (native JAK3 kinase assays) or insect ovary cells (recombinant JAK3 kinase assays) were lysed with NP-40 lysis buffer (50 mM Tris, pH 8, 150 mM NaCl, 5 mM EDTA, 1% NP-40, 100 μM sodium orthovanadate, 100 μM sodium molybdate, 8 μg/ml aprotinin, 5 μg/ml leupeptin, and 500 μM PMSF) and centrifuged 10 min at 13000× g to remove insoluble material. Samples were immunoprecipitated with antisera prepared against JAK3. The antisera were diluted and immune complexes collected by incubation with 15 μl protein A Sepharose. After 4 washes with NP-40 lysis buffer, the protein A Sepharose beads were washed once in kinase buffer (20 mM MOPS, pH7, 10 mM MgCl2) and resuspended in the same buffer. Reactions were initiated by the addition of 25 μCi [γ^32P] ATP (5000 Ci/mMole) and unlabeled ATP to a final concentration of 5 μM. Reactions were terminated by boiling for 4 min in SDS sample buffer. Samples were run on 9.5% SDS polyacrylamide gels and labeled proteins were detected by autoradiography. Following electrophoresis, kinase gels were dried onto Whatman 3M filter paper and subjected to phosphorimaging on a Molecular Imager (Bio-Rad, Hercules, Calif.) as well as autoradiography on film. For each drug concentration, a kinase activity index (KA) was determined by comparing the kinase activity in phosphorimager units (PIU) to that of the baseline sample. In some experiments, cold kinase assays were performed, as described by (Uckun, F. M., et al., Clin. Can. Res. 4: 901-912, 1998).
We first used immune complex kinase assays to compare the effects of the synthesized dimethoxyquinazoline compounds on the enzymatic activity of human JAK3 immunoprecipitated from the KL2 EBV-transformed human lymphoblastoid B cell line.

NOD-scid/scid females = assay: Adoptive transfer of diabetes; format: in vivo, mouse; settings: 50 mg/kg daily, up to week 5 post transfer
Protocol: Single-cell suspensions of splenic leucocytes pooled from 8-10 diabetic NOD females were prepared by passage through Nitex 110 mesh, and red blood cells were lysed in 10× Gey's solution. Aliquots of 1×10^7 splenocytes were adoptively transferred intravenously into 4-week-old NOD/Lt-scid/scid females (The Jackson Laboratory, Bar Harbor, Me.). […] Mice were monitored for diabetes development by testing urinary glucose every week from second week after the transfer by Chemstrip uGK strips (Boehringer Mannheim, Indianapolis, Ind.). Mice with glycosuria over 500 mg/dl (+++) on consecutive weekly tests were considered diabetic, with the first detection of chronic glycosuria taken as the date of IDDM onset.

`COc1cc2ncnc(Nc3ccc(O)cc3)c2cc1OC` [WHI-P131, 4-(4′-hydroxyl-phenyl)-amino-6,7-dimethoxyquinazoline] was tested, and the “percentages of CD3+, CD4+ and CD8+ T-cells and CD19+ B-cells vs vehicle” value (C57BL/6 males; data not shown) was “no differences”, the “number of CD4+ T-cells” value (C57BL/6 males; controls 20.5±0.6) was 16.8±1.2 ×10^6 and the “number of CD3+ splenocytes” value (C57BL/6 males; controls 46.9±2.6) was 37.7±3.2 ×10^6. For the same molecule, the “number of B-cells” value (C57BL/6 males; controls 78.2±6.1) was 57.1±5.3 ×10^6, the “Total number of splenocytes” value (C57BL/6 males; vehicle 154±8.5) was 119±9.4 ×10^6 and the diabetes incidence (NOD females; 20 mg/kg daily, till 18 wks of age) was 56%. For the same molecule, the “age at which mice started to develop diabetes” value (NOD females; 50 mg/kg daily from 5 wks, control 13 wks) was 22 wks, the diabetes incidence (NOD females; 50 mg/kg daily, 5 to 25 wks of age, at 25 wks) was 18% and the diabetes incidence (NOD females; 100 mg/kg, 'the first treatment', at 25 wks of age, p=0.007) was 9%. The diabetes incidence (NOD females; 100 mg/kg, 'the later one', at 25 wks of age, p=0.025) was 18%, the “age at which diabetes started” value (NOD females; 100 mg/kg, short course wks 5 to 9) was 10 wks and the diabetes incidence (NOD females; 100 mg/kg, short course wks 5 to 9, by 25 wks of age) was 83%. For the same molecule, the Insulitis score (NOD females; 100 mg/kg, treated from 5-25 wks of age, controls 1.43±0.15) was 0.86±0.12, the Insulitis score (NOD females; 100 mg/kg, treated from 10-25 wks of age) was 1.42±0.24 and the pIC50 (human JAK3) was 5.04. The “diabetic mice post adoptive transfer” value (NOD-scid/scid females) was 8%.
